Data as given in ChEMBL document CHEMBL4177663, “Discovery and structure-activity relationship study of 1,3,6-trisubstituted 1,4-diazepane-7-ones as novel human kallikrein 7 inhibitors” (Bioorg Med Chem Lett, 2017).

Tests used:
[1] = Inhibition of human chymotrypsin preincubated for 10 mins followed by Suc-Ala-Ala-Pro-Phe-MCA peptide substrate addition measured after 30 mins by fluorescence analysis
Kallikrein-5 = target: T1, Kallikrein-5 (Homo sapiens, UniProt Q9Y337); assay: Inhibition of recombinant human C-terminal 10-His tagged KLK5 preincubated for 10 mins followed by Boc-Val-Pro-Arg-MCA peptide substrate addition measured after 30 mins by fluorescence analysis
T1 sequence (Q9Y337 whole entry): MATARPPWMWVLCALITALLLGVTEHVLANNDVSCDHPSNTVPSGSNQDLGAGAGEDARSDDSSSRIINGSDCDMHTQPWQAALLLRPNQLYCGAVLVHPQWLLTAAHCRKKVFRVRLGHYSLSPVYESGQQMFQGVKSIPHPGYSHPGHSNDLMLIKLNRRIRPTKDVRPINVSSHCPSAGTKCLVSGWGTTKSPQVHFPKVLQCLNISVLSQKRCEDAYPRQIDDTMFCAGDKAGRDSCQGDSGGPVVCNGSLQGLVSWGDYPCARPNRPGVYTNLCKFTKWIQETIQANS

Trypsin = Trypsin (Homo sapiens, UniProt P07477+P07478+P35030); assay: Inhibition of human trypsin preincubated for 10 mins followed by Boc-Gln-Ala-Arg-MCA peptide substrate addition measured after 30 mins by fluorescence analysis; assay type: protein assay
Kallikrein-7 = Kallikrein-7 (Homo sapiens, UniProt P49862); assay: Inhibition of thermolysin activated recombinant human C-terminal 10-His tagged KLK7 preincubated for 10 mins followed by MOCAc-Arg-Pro-Lys-Pro-Val-Glu-Nva-Trp-Arg-Lys(Dnp)-NH2 peptide substrate addition measured after 30 mins by fluorescence analysis
Kallikrein-7, sequence (P49862 whole entry): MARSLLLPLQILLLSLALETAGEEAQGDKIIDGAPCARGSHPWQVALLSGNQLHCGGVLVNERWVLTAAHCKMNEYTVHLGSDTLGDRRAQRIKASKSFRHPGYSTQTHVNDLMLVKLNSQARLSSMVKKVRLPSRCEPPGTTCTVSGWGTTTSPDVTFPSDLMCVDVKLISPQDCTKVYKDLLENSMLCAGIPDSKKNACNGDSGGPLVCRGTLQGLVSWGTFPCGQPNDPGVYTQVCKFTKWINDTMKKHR

Compound | IC50 [1] | IC50 (Kallikrein-5) | IC50 (Trypsin) | IC50 (Kallikrein-7)
COc1ccc(Cl)cc1C[C@@H]1CN/C(=N\N(C)C)CN(CC(=O)Nc2cccc(C(=O)O)c2)C1=O.Cl | 30 µM | > 30 µM | > 30 µM | 1.9 µM
COc1ccc(Cl)cc1C[C@@H]1CN/C(=N\Oc2cc(F)cc(F)c2)CN(CC(=O)Nc2ccc(O)c(C(=O)O)c2)C1=O |  |  |  | 5.8 µM
COc1ccc(Cl)cc1C[C@@H]1CN/C(=N\O)CN(CC(=O)Nc2cccc(C(=O)O)c2)C1=O |  |  |  | > 30 µM
COc1ccc(Cl)cc1C[C@@H]1CN/C(=N\N(C)C)CN(CC(=O)Nc2ccccc2)C1=O |  |  |  | 4.5 µM
COc1ccc(Cl)cc1C[C@@H]1CN/C(=N\N(C)C)CN(CC(=O)Nc2ccccc2C(=O)O)C1=O |  |  |  | > 30 µM
CO/N=C1/CN(CC(=O)Nc2cccc(C(=O)O)c2)C(=O)[C@H](Cc2cc(Cl)ccc2OC)CN1 |  |  |  | 14 µM
COc1ccc(Cl)cc1C[C@@H]1CN/C(=N\OCC(C)C)CN(CC(=O)Nc2cccc(C(=O)O)c2)C1=O |  |  |  | > 30 µM
COc1ccc(Cl)cc1C[C@@H]1CN/C(=N\Oc2c(F)cccc2F)CN(CC(=O)Nc2cccc(C(=O)O)c2)C1=O |  |  |  | 5.4 µM
COc1ccc(Cl)cc1C[C@@H]1CNC(=O)CN(CC(=O)Nc2ccc(O)c(C(=O)O)c2)C1=O |  |  |  | > 30 µM
COc1ccc(Cl)cc1C[C@@H]1CN/C(=N\N(C)C)CN(CC(=O)Nc2ccccn2)C1=O |  |  |  | 16 µM
COc1ccc(Cl)cc1C[C@@H]1CN/C(=N\N(C)C)CN(CC(=O)Nc2cccnc2)C1=O |  |  |  | 9 µM
COc1ccc(Cl)cc1C[C@H]1CN/C(=N\Oc2cc(F)cc(F)c2)CN(CC(=O)Nc2ccc(O)c(C(=O)O)c2)C1=O |  |  |  | > 30 µM
CCO/N=C1/CN(CC(=O)Nc2cccc(C(=O)O)c2)C(=O)[C@H](Cc2cc(Cl)ccc2OC)CN1 |  |  |  | 13 µM
COc1ccc(Cl)cc1C[C@@H]1CN/C(=N\N(C)C)CN(CC(=O)Nc2ccc(C(=O)O)cc2)C1=O |  |  |  | 30 µM
COc1ccc(Cl)cc1C[C@@H]1CN/C(=N\N(C)C)CN(CC(=O)Nc2cccc(S(C)(=O)=O)c2)C1=O | 24 µM | > 30 µM | > 30 µM | 0.82 µM
